# Results: patent US7981903B2, “2-[2-{phenylamino}-1H-pyrrolo[2,3-D]pyrimidin-4-yl)amino] benzamide derivatives as IGF-1R inhibitors for the treatment of cancer” (GlaxoSmithKline LLC, priority 2007, dated 2011)
# What was measured:
# Type in all cases: cell-based
# NCI-H929 = experiment: Inhibition of cell proliferation (CellTiter-Glo or InCell analyzer), NCI-H929; conditions: Homo sapiens, 72 h / 3 days, values given as IC50 category
# How it was run: In one
# [1] = target: T1, NIH-3T3 cells overexpressing human IGF-1R (Homo sapiens, UniProt P08069); experiment: IGF-1R cellular autophosphorylation (DELFIA)
# T1 construct: expressed in transfected cells; host or cells: NIH-3T3 (mouse fibroblasts)
# T1 sequence (P08069 31-1367): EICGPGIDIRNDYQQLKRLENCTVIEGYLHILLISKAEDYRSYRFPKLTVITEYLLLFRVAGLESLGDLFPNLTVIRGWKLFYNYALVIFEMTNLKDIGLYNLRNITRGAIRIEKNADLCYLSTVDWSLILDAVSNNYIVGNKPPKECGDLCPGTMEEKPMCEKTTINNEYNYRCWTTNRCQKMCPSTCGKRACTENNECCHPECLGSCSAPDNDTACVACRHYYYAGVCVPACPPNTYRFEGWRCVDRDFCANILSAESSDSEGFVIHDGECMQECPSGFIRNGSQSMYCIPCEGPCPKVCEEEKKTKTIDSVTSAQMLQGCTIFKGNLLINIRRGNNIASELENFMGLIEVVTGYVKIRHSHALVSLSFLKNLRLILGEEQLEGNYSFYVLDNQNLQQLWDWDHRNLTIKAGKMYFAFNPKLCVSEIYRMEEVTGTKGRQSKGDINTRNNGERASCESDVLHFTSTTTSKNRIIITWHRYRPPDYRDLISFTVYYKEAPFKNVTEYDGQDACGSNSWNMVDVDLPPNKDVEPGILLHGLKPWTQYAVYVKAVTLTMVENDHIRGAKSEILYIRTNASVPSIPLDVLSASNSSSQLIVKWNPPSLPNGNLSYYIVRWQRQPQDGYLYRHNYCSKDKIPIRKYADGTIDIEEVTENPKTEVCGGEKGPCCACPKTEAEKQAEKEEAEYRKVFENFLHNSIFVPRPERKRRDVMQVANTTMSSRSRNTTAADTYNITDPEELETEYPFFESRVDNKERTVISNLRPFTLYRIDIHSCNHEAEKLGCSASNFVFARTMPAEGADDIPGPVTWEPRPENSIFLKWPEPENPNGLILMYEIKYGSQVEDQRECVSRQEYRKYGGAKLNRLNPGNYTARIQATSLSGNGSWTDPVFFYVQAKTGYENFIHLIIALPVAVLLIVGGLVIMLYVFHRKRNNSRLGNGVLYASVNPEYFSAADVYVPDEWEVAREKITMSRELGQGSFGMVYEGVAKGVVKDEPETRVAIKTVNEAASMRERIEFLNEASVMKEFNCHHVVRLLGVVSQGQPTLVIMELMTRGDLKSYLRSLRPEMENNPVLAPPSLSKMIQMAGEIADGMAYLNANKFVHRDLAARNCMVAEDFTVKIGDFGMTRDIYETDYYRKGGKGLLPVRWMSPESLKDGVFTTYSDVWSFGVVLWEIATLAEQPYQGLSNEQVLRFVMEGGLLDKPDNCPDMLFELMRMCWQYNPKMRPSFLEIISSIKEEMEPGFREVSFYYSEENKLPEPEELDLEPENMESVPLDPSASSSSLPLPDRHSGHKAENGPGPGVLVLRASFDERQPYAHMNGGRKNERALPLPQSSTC
# How it was run: (§1)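 Receptor autophosphorylation measured by DELFIA, capturing IGF-1R or IRβ and detecting with europium anti-pTyr, reported as percent of IGF-1- or insulin-stimulated signal. Compounds (30 uM to 1.5 nM) added 2 h before ligand, then 15 min stimulation (IGF-1 30 ng/ml or insulin 3 ug/ml).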
# [2] = target: T2, NIH-3T3 cells overexpressing human IR (Homo sapiens, UniProt P06213); experiment: IR cellular autophosphorylation (DELFIA); conditions: 2 h compound, insulin 3 ug/ml for 15 minutes, IC50 category
# T2 construct: expressed in transfected cells; host or cells: NIH-3T3 (mouse fibroblasts)
# T2 sequence (P06213 28-1382): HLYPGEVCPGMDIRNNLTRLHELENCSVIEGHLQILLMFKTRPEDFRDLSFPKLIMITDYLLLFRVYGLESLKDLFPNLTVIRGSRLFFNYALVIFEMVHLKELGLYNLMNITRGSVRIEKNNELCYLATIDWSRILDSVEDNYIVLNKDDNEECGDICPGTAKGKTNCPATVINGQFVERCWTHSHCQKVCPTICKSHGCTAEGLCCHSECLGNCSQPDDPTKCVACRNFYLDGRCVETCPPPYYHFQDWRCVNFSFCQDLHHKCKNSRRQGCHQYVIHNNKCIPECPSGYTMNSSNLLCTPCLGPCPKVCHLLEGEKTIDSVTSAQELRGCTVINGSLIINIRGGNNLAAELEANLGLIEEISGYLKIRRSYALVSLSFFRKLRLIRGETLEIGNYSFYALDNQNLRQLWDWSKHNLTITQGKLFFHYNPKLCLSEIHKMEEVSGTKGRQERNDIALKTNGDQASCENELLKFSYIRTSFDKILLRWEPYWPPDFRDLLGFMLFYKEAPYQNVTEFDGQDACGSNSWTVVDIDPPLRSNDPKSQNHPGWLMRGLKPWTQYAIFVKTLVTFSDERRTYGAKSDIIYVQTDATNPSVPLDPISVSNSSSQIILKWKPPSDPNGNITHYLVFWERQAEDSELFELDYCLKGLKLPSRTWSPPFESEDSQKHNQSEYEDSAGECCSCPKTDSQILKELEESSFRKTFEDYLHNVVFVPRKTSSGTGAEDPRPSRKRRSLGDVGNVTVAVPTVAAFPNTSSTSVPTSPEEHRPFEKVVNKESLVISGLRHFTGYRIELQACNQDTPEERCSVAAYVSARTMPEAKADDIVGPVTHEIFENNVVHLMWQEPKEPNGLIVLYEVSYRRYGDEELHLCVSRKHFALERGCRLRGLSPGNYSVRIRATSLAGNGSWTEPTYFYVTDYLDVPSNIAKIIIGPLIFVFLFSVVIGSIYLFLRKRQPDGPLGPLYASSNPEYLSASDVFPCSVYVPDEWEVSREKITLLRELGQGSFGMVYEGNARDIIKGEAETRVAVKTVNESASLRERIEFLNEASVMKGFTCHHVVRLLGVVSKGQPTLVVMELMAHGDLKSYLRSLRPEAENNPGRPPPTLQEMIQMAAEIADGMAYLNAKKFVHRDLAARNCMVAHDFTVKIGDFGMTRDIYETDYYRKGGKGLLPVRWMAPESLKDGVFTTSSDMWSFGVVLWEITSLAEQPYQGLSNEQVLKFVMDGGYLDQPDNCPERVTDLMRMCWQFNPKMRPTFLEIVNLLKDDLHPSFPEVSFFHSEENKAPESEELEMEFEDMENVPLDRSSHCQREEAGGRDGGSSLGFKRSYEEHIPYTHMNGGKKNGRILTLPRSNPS
# How it was run: as §1
# Colo205 = experiment: Inhibition of cell proliferation (CellTiter-Glo or InCell analyzer), Colo205; conditions: Homo sapiens, COLO 205, 72 h / 3 days, values given as IC50 category
# How it was run: In one
IC50 (NCI-H929) [nM],IC50 [1] [nM],IC50 [2] [nM],IC50 (Colo205) [nM],Compound
< 250,100 to 500,100 to 500,< 250,"CCCN1CCC=C(c2ccc(Nc3nc(Nc4ccccc4C(N)=O)c4cc[nH]c4n3)c(OC)c2)C1 [Example 2, 2-[(2-{[2-(methyloxy)-4-(1-propyl-1,2,5,6-tetrahydro-3-pyridinyl)phenyl]amino}-1H-pyrrolo[2,3-d]pyrimidin-4-yl)amino]benzamide]"
,< 100,< 100,< 250,"CCCN1CCCC(c2ccc(Nc3nc(Nc4ccccc4C(N)=O)c4cc[nH]c4n3)c(OC)c2)C1 (stereo not shown) [Example 3, 2-[(2-{[2-(methyloxy)-4-(1-propyl-3-piperidinyl)phenyl]amino}-1H-pyrrolo[2,3-d]pyrimidin-4-yl)amino]benzamide]"
< 250,< 100,100 to 500,< 250,"COc1cc(N2CCN(C(C)C)CC2)ccc1Nc1nc(Nc2ccccc2C(N)=O)c2cc[nH]c2n1 [Example 7, 2-[(2-{[4-[4-(1-methylethyl)-1-piperazinyl]-2-(methyloxy)phenyl]amino}-1H-pyrrolo[2,3-d]pyrimidin-4-yl)amino]benzamide]"
,< 100,,< 250,"COc1ccc(NC(=O)CN(C)C)cc1Nc1nc(Nc2ccccc2C(N)=O)c2cc[nH]c2n1 [Example 15, 2-[(2-{[5-[(N,N-dimethylglycyl)amino]-2-(methyloxy)phenyl]amino}-1H-pyrrolo[2,3-d]pyrimidin-4-yl)amino]benzamide]"
,< 100,,< 250,"CN(C)CC(=O)Nc1ccc(F)c(Nc2nc(Nc3ccccc3C(N)=O)c3cc[nH]c3n2)c1 [Example 17, 2-{[2-({5-[(N,N-dimethylglycyl)amino]-2-fluorophenyl}amino)-1H-pyrrolo[2,3-d]pyrimidin-4-yl]amino}benzamide]"
,100 to 500,,250 to 1000,"COc1ccc(C(N)=O)c(Nc2nc(Nc3ccc(N4CCOC[C@@H]4C)cc3OC)nc3[nH]ccc23)c1 [Example 39, 2-[(2-{[4-[(3S)-3-methyl-4-morpholinyl]-2-(methyloxy)phenyl]amino}-1H-pyrrolo[2,3-d]pyrimidin-4-yl)amino]-4-(methyloxy)benzamide]"
,100 to 500,100 to 500,< 250,"CCCN1CCC=C(c2ccc(Nc3nc(Nc4ccc(F)cc4C(N)=O)c4cc[nH]c4n3)c(OC)c2)C1 [Example 54, 5-fluoro-2-[(2-{[2-(methyloxy)-4-(1-propyl-1,2,5,6-tetrahydro-3-pyridinyl)phenyl]amino}-1H-pyrrolo[2,3-d]pyrimidin-4-yl)amino]benzamide]"
< 250,< 100,< 100,< 250,"COc1cc(C2CCN(C(C)C)CC2)ccc1Nc1nc(Nc2ccc(F)cc2C(N)=O)c2cc[nH]c2n1 [Example 58, 5-fluoro-2-[(2-{[4-[1-(1-methylethyl)-4-piperidinyl]-2-(methyloxy)phenyl]amino}-1H-pyrrolo[2,3-d]pyrimidin-4-yl)amino]benzamide]"
,< 100,< 100,< 250,"COc1cc(N2CCOC[C@@H]2C)ccc1Nc1nc(Nc2cc(F)ccc2C(N)=O)c2cc[nH]c2n1 [Example 84, 4-fluoro-2-[(2-{[4-[(3S)-3-methyl-4-morpholinyl]-2-(methyloxy)phenyl]amino}-1H-pyrrolo[2,3-d]pyrimidin-4-yl)amino]benzamide]"
< 250,< 100,< 100,< 250,"CCCN1CCC(c2ccc(Nc3nc(Nc4cc(F)cc(F)c4C(N)=O)c4cc[nH]c4n3)c(OC)c2)CC1 [Example 92, 2,4-difluoro-6-[(2-{[2-(methyloxy)-4-(1-propyl-4-piperidinyl)phenyl]amino}-1H-pyrrolo[2,3-d]pyrimidin-4-yl)amino]benzamide]"
< 250,100 to 500,100 to 500,250 to 1000,"COc1cc2c(cc1Nc1nc(Nc3cccc(F)c3C(N)=O)c3cc[nH]c3n1)CN(C)CC2 [Example 121, 2-fluoro-6-[(2-{[2-methyl-6-(methyloxy)-1,2,3,4-tetrahydro-7-isoquinolinyl]amino}-1H-pyrrolo[2,3-d]pyrimidin-4-yl)amino]benzamide]"
< 250,100 to 500,< 100,> 1000,"CCCN1CCC(N2CCc3cc(OC)c(Nc4nc(Nc5cccc(F)c5C(N)=O)c5cc[nH]c5n4)cc3C2)CC1 [Example 122, 2-fluoro-6-[(2-{[6-(methyloxy)-2-(1-propyl-4-piperidinyl)-1,2,3,4-tetrahydro-7-isoquinolinyl]amino}-1H-pyrrolo[2,3-d]pyrimidin-4-yl)amino]benzamide]"

# More lines, now with the values behind:
Compound,IC50 (NCI-H929) [nM],IC50 [1] [nM],IC50 [2] [nM],IC50 (Colo205) [nM]
"CN(C)CC(=O)Nc1ccc(OC(F)(F)F)c(Nc2nc(Nc3ccccc3C(N)=O)c3cc[nH]c3n2)c1 [Example 16, 2-{[2-({5-[(N,N-dimethylglycyl)amino]-2-[(trifluoromethyl)oxy]phenyl}amino)-1H-pyrrolo[2,3-d]pyrimidin-4-yl]amino}benzamide]",,100 to 500,100 to 500,250 to 1000
"COc1cc2c(cc1Nc1nc(Nc3cccc(F)c3C(N)=O)c3cc[nH]c3n1)N(C(=O)CN(C)C)CC2 [Example 53, 2-[(2-{[1-(N,N-dimethylglycyl)-5-(methyloxy)-2,3-dihydro-1H-indol-6-yl]amino}-1H-pyrrolo[2,3-d]pyrimidin-4-yl)amino]-6-fluorobenzamide]",< 250,< 100,< 100,< 250
"COc1cc(N2CCC(N3CCOCC3)CC2)ccc1Nc1nc(Nc2cc(F)ccc2C(N)=O)c2cc[nH]c2n1 [Example 78, 4-fluoro-2-{[2-({2-(methyloxy)-4-[4-(4-morpholinyl)-1-piperidinyl]phenyl}amino)-1H-pyrrolo[2,3-d]pyrimidin-4-yl]amino}benzamide]",,< 100,100 to 500,250 to 1000
"COc1ccc(OC[C@@H](O)CN(C)C)cc1Nc1nc(Nc2cc(F)ccc2C(N)=O)c2cc[nH]c2n1 [Example 86, 2-[(2-{[5-{[(2S)-3-(dimethylamino)-2-hydroxypropyl]oxy}-2-(methyloxy)phenyl]amino}-1H-pyrrolo[2,3-d]pyrimidin-4-yl)amino]-4-fluorobenzamide]",,100 to 500,> 500,< 250
"COc1cc(N2CCN(C(C)C)CC2)ccc1Nc1nc(Nc2cc(F)cc(F)c2C(N)=O)c2cc[nH]c2n1 [Example 89, 2,4-difluoro-6-[(2-{[4-[4-(1-methylethyl)-1-piperazinyl]-2-(methyloxy)phenyl]amino}-1H-pyrrolo[2,3-d]pyrimidin-4-yl)amino]benzamide]",< 250,< 100,< 100,250 to 1000
"COc1cc(N2CCN(C(C)C)CC2)c(C)cc1Nc1nc(Nc2cc(F)cc(F)c2C(N)=O)c2cc[nH]c2n1 [Example 91, 2,4-difluoro-6-[(2-{[5-methyl-4-[4-(1-methylethyl)-1-piperazinyl]-2-(methyloxy)phenyl]amino}-1H-pyrrolo[2,3-d]pyrimidin-4-yl)amino]benzamide]",< 250,< 100,< 100,< 250
"COc1ccc(OC[C@@H](O)CN2CCCC2)cc1Nc1nc(Nc2cc(F)c(F)cc2C(N)=O)c2cc[nH]c2n1 [Example 107, 4,5-difluoro-2-[(2-{[5-{[(2S)-2-hydroxy-3-(1-pyrrolidinyl)propyl]oxy}-2-(methyloxy)phenyl]amino}-1H-pyrrolo[2,3-d]pyrimidin-4-yl)amino]benzamide]",,100 to 500,> 500,250 to 1000
"COc1cc2c(cc1Nc1nc(Nc3cccc(F)c3C(N)=O)c3cc[nH]c3n1)N(CCN(C)C)CC2 [Example 117, 2-[(2-{[1-[2-(dimethylamino)ethyl]-5-(methyloxy)-2,3-dihydro-1H-indol-6-yl]amino}-1H-pyrrolo[2,3-d]pyrimidin-4-yl)amino]-6-fluorobenzamide]",250 to 1000,> 500,> 500,> 1000
"COc1cc2c(cc1Nc1nc(Nc3cccc(F)c3C(N)=O)c3cc[nH]c3n1)N(C(=O)CCN(C)C)CC2 [Example 118, 2-[(2-{[1-(N,N-dimethyl-b-alanyl)-5-(methyloxy)-2,3-dihydro-1H-indol-6-yl]amino}-1H-pyrrolo[2,3-d]pyrimidin-4-yl)amino]-6-fluorobenzamide]",< 250,100 to 500,> 500,250 to 1000
"COc1cc2c(cc1Nc1nc(Nc3cc(Cl)cc(F)c3C(N)=O)c3cc[nH]c3n1)N(C(=O)CN(C)C)CC2 [Example 119, 4-chloro-2-[(2-{[1-(N,N-dimethylglycyl)-5-(methyloxy)-2,3-dihydro-1H-indol-6-yl]amino}-1H-pyrrolo[2,3-d]pyrimidin-4-yl)amino]-6-fluorobenzamide]",< 250,< 100,< 100,250 to 1000
"COc1cc2c(cc1Nc1nc(Nc3cc4ccccc4cc3C(N)=O)c3cc[nH]c3n1)N(C(=O)CN(C)C)CC2 [Example 124, 3-[(2-{[1-(N,N-dimethylglycyl)-5-(methyloxy)-2,3-dihydro-1H-indol-6-yl]amino}-1H-pyrrolo[2,3-d]pyrimidin-4-yl)amino]-2-naphthalenecarboxamide]",< 250,< 100,100 to 500,< 250
